Data from patent US12274703B2, “Compositions and methods of treatment for neurological disorders comprising a dementia” (Gliapharm SA, priority 2017, dated 2025).
Where two headings read alike, the source gives them in different places.

Key:
astrocytes [1] = assay: Production of H2O2 (mitochondrial activity); format: cell-based; settings: Mus musculus, Astrocyte, 1.5 h; CDC54K hits; 0-200 uM, 90 min
Method: (§1) Primary cultures of cerebrocortical astrocytes were obtained from 1-2-day-old OF1 mouse pups (Charles River Laboratories). Briefly, cortices were isolated and minced in small pieces under a dissecting microscope. The cells were incubated for 30 min at 37° C. in a solution containing 20 U/ml of papain enzyme (Worthington Biochemical), L-cysteine 1 mM (Sigma), and 10 kU/ml DNase I (Worthington Biochemical) for an enzymatic dissociation. Papain activity was stopped by the addition of fetal calf serum (FCS) to the solution, and a single-cell suspension was then obtained by mechanical dissociation, which consisted in cells trituration in a DMEM (D7777, Sigma-Aldrich) medium (supplemented with 44 mm NaHCO3, and 10 ml/L antibiotic/antimycotic solution) containing 10% FCS. The cells were seeded at an average density of 6×10^4 cells/cm^2 in poly-D-lysine-coated 96, 12 or 6-well culture plates, depending on their use, and incubated at 37° C. in a humidified atmosphere containing 5% CO2/95% air. Culture medium was renewed twice per week. Cells were stimulated and harvested between DIV14 and DIV17, when confluence and cell growth were optimal.
Hydrogene peroxide (H2O2) released in the supernatant is detected enzymatically with Amplex red (Zhou, Diwu et al. 1997). Oxidation of Amplex red is catalysed by the horseradish peroxidase in presence of H2O2 into highly fluorescent resorufin. Fluorescence measure is read at 545 nm extinction, 590 nm emission. The amount of H2O2 was expressed relatively to the proteins content extracted from the cells in culture. […]
Mitochondrial respiration in astrocytes was measured through production of H2O2 at 90 min after stimulation with CDC54K hits (ranging from 0 to 200 uM).

astrocytes [2] = assay: MTT viability assay; format: cell-based; settings: Mus musculus, Astrocyte; CDC54K hits; cellular toxicity, 0-200 uM
Method: as §1
For cell toxicity determination, astrocytes in 96-well plates were stimulated 24 h (37° C. 5% CO2/95% air) with a gradient ranging from 0.1 to 200 μM of tested compounds. After stimulation, 5 mg/ml thiazol blue tetrazolium bromide (MTT, Sigma-Aldrich) in warm D5030 complete medium was added to each well, and cells were incubated for 4 h at 37° C. (5% CO2). The medium was then removed by aspiration, and the reaction was stopped by the addition of 50 μl DMSO per well.
The amount of reduced MTT (formazan) solubilized in DMSO was then determined spectrophotometrically using absorbance at 570 nm (Safire 2; Tecan).
MTT cellular viability assay was performed on astrocytes exposed to molecules from the Prestwick library (Prestwick hits; concentrations ranging from 0 uM to 200 uM).
MTT cellular viability assay was performed on astrocytes exposed to CDC54K hits (concentrations ranging from 0 uM to 200 uM).

primary astrocytes = assay: High throughput screening for lactate secretion: acidification of extracellular medium (SNARF5); format: cell-based, mouse; set-up: key to Score / HTS Score (lactate) / HTS Score (SNARF5) / Score_SNARF: fraction of positive control activity (positive control = 100%); settings: for Score_SNARF: primary screening confirmation (SNARF5); for Score / HTS Score (SNARF5) / Emax at 10 µM: 10 uM, 90 min; for Emax at 10 µM: Mus musculus, Astrocyte, 1.5 h
How it was run: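 Mouse cortical astrocytes (DIV17) stimulated 90 min at 10 uM compound (1% DMSO) in low-bicarbonate DMEM, 5 mM glucose, with SNARF-5F; extracellular acidification read as 630/580 nm emission ratio (exc 480 nm). Duplicates; score as % of CCCP 2 uM control, hits >3× summed SD above DMSO.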

astrocytes [3] = assay: Extracellular lactate quantification; format: cell-based, mouse; settings: for Score_LACTATE: Appendix I, secondary screening, dosage of extracellular lactate; for EC50: Mus musculus, Astrocyte
How it was run: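 Primary cortical astrocytes from 1–2-day-old OF1 mouse pups, used at DIV14–17, stimulated 90 min at 37 °C in D5030 with 5 mM glucose, compounds 0–100 μM. Extracellular L-lactate measured enzymatically (LDH/NAD, pH 10, 1 h 37 °C) by NADH fluorescence (ex 340/em 450) against L-lactate standard curve.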

[4] = Appendix I, primary screening, relative to positive control
[5] = CDC54K hits, relative to positive control CCCP 2 uM
[6] = 1.5 h, CDC54K hits, 0-100 uM, 90 min, read-out: Lactate EC50
[7] = Appendix I, primary screening, relative to positive control, read-out: Score
[8] = CDC54K hits, relative to positive control CCCP 2 uM, read-out: HTS Score (SNARF5)

Row | Compound | IC50 (astrocytes [1]) | IC50 (astrocytes [2]) | Score_SNARF (primary astrocytes; Appendix I) | Score (primary astrocytes; [4]) | HTS Score (SNARF5) (primary astrocytes; [5]) | Score_LACTATE (astrocytes [3]) | EC50 (astrocytes [3]; [6]) | Emax at 10 µM (primary astrocytes; [7]) | Score Lact. (astrocytes [3]; Appendix II) | EC50 (astrocytes [3]; Appendix II, lactate secretion, read-out: EC50) | Emax at 10 µM (primary astrocytes; [8])
1 | CC(=O)N1CCc2sc(S(=O)(=O)N3CCN(c4ccccc4C)CC3)cc2C1 [P025-0159] | > 200 µM | > 200 µM | 0.8007 | 0.9535 | 0.953 | 0.9232 | 8.7 µM | – | – | – | –
2 | COc1cc(C)c(Cl)cc1S(=O)(=O)NCc1ccncc1 [T5580243] | > 200 µM | > 200 µM | 0.8565 | 0.8528 | 0.853 | 0.7229 | 11 µM | – | – | – | –
3 | N#Cc1ccc(C(=O)N2CCC(Nc3ncnc4c3CCC4)C2)cc1 (stereo not shown) [T636-2387] | > 200 µM | > 200 µM | – | – | 0.445 | – | 11.5 µM | 44.5% | 0.30 | 6.83 µM | –
4 | CCn1nccc1-c1csc(S(=O)(=O)Nc2ccc(Cl)cc2F)c1 [L924-1031] | 48.6 µM | > 200 µM | 0.8713 | 0.9286 | 0.929 | 1.632 | 25.3 µM | – | – | – | –
5 | O=C1CCCN1c1ccc(S(=O)(=O)Nc2cccc(/C=C/c3ccccn3)c2)cc1 [T5644989] | > 200 µM | > 200 µM | 0.8385 | 0.6796 | 0.68 | 0.7859 | 7.9 µM | – | – | – | –
6 | COc1ccccc1[N+]1=C2CCCCCN2C(O)(c2ccc(C)cc2)C1 (stereo not shown) [K404-0834] | > 200 µM | 150 µM | – | – | – | – | 1.8 µM | 112% | – | – | 112%
7 | Cc1nc2ccc(NS(=O)(=O)c3cccc(F)c3)cc2s1 [T6937001] | > 200 µM | > 200 µM | 0.8557 | 0.8094 | 0.809 | 0.9088 | 11.5 µM | – | – | – | –
8 | Cc1ccccc1NC(=O)C1CCCN(c2ncnc3oc(C)c(C)c23)C1 (stereo not shown) [F228-0422] | > 200 µM | > 200 µM | 0.7702 | 1.057 | 1.058 | 0.6364 | 0.5 µM | – | – | – | –
9 | O=S(=O)(Nc1cc(F)cc(F)c1)c1ccc2ccccc2c1 [T5884038] | > 200 µM | 70.5 µM | – | – | – | – | 12.2 µM | 72.1% | – | – | 72.1%
10 | CCc1nc(-c2csc(S(=O)(=O)NCc3ccc4c(c3)OCO4)c2)no1 [L287-0468] | > 200 µM | > 200 µM | 0.6592 | 0.5971 | 0.597 | 0.6179 | 7.9 µM | – | – | – | –
11 | c1ccc2c(c1)CCN(c1ncnc3sccc13)C2 [T0517-8250] | > 200 µM | 140 µM | – | – | – | – | 3 µM | 95.7% | – | – | 95.7%
12 | COc1ccc(Nc2nc(N3CCOCC3)c3ccccc3n2)cc1.Cl [T0508-5190] | 185 µM | 75 µM | – | – | – | – | 3.1 µM | 45.9% | – | – | 45.9%
